Data set [1] relates to CYP450s. As to the kind of experiment: in vitro. Format: in vitro ADME. The settings on record: both sexes, Sprague-Dawley, rat, pH 7.4, rat liver microsomes, gender-mixed. As for the experimental part:
(§1) In vitro incubations were performed to obtain kinetic parameters for the CYP450s-catalyzed conversion of FNT to FNO and MNP using gender-mixed rat and human liver microsomes. For the PON1-dominated detoxification of FNO to MNP, in vitro incubations were conducted with gender-mixed liver microsomes or plasma from rats and humans. Sample extraction with diisopropyl ether was performed before UPLC-PDA analysis. More details on in vitro incubations, sample extraction, UPLC-PDA analysis, and calculation of kinetic parameters are provided in the Supporting Information.
(§2) Supplementary materials and methods
Chemical and biological materials […]
Human liver microsomes (pooled from 150 donors, mixed gender) and pooled male rat liver microsomes (Sprague-Dawley) were purchased from Corning (Amsterdam, The Netherlands). […] Human plasma (pooled from 25 donors, mixed gender) and rat plasma (Sprague-Dawley, mixed gender) were ordered from BioIVT (West Sussex, UK), and corresponding total protein concentrations were determined using BCA protein assay (Supporting Information). […]
On the technique in general: Liver microsomes are vesicles of endoplasmic reticulum, rich in cytochrome P450 enzymes.

Data set [2] relates to CYP450s. As to the kind of experiment: in vitro. It is filed as in vitro ADME, human. The settings on record: gender-mixed. The procedure: as §1, §2
Chemical and biological materials
FNT, acetylthiocholine iodide (ATC), 5,5’-dithiobis (2-nitrobenzoic acid) (DTNB), ethopropazine, tetraisopropyl pyrophosphoramide (iso-OMPA), perchloric acid (HClO4), trifluoroacetic acid (TFA), EDTA, MgCl2•6H2O, CaCl2•2H2O, NaH2PO4, Na2HPO4, Triton-X 100, Trizma® base and diisopropyl ether (DIPE) were ordered from Sigma-Aldrich (Amsterdam, The Netherlands). FNO was purchased from FUJIFILM Wako Pure Chemical Corporation (Tokyo, Japan), MNP and reduced nicotinamide adenine dinucleotide phosphate (NADPH) from Carbosynth Ltd. (Compton, UK). Acetonitrile (UPLC/MS grade), methanol (UPLC/MS grade) and ethanol (UPLC/MS grade) were ordered from Biosolve (Valkenswaard, The Netherlands). Chlorpyrifos-oxon was ordered from TRC-Canada (Toronto, Ontario, Canada). Ultrapure water was prepared using a Sartorius Arium® Pro ultrapure water system (Göttingen, Germany).
Human liver microsomes (pooled from 150 donors, mixed gender) and pooled male rat liver microsomes (Sprague-Dawley) were purchased from Corning (Amsterdam, The Netherlands). Pooled female rat liver microsomes (Sprague-Dawley) were ordered from Sigma-Aldrich (St. Louis, MO, USA). […] Human plasma (pooled from 25 donors, mixed gender) and rat plasma (Sprague-Dawley, mixed gender) were ordered from BioIVT (West Sussex, UK), and corresponding total protein concentrations were determined using BCA protein assay (Supporting Information). […]

For data set [3] the following is noted: cited from earlier work.

Structures are written as SMILES. Read-outs that look alike come from different tables or passages of the source.

Turning to `COP(=S)(OC)Oc1ccc([N+](=O)[O-])c(C)c1` [FNT, O,O-dimethyl O-4-nitro-m-tolyl phosphorothioate], the Km (usually the substrate concentration at which the rate is half of its maximum) in data set [1] (read-out: Km, FNT to FNO (CYP450s-catalyzed)) was determined as 8.28 µM; in data set [1] (read-out: Km, FNT to MNP (CYP450s-catalyzed)), 20.5 µM; in data set [2] (both sexes, human, pH 7.4, human liver microsomes, read-out: Km, FNT to FNO (CYP450s-catalyzed)) it was 21.6 µM; in data set [2] (both sexes, human, pH 7.4, human liver microsomes, read-out: Km, FNT to MNP (CYP450s-catalyzed)) it was 4.08 µM; in data set [2] (human liver microsomes, read-out: Km, FNT to MNP (CYP450s-catalyzed)), 4.08 µM. For the same molecule, in data set [3] (not clear if experimental or in silico, ref WHO 2004), the “LogP, reported data” value was 3.16. For the same molecule, the “LogP, experimental data” value in data set [3] (ref JMPR 2003) is reported as 3.319.

(Values after article PMC10720383, “Acetylcholinesterase Inhibition in Rats and Humans Following Acute Fenitrothion Exposure Predicted by Physiologically Based Kinetic Modeling-Facilitated Quantitative In Vitro to In Vivo Extrapolation” (Environmental Science & Technology, 2023).)
